Laboratory results published in article PMC12497685, “Anticoronavirus Isoquinoline Alkaloids: Unraveling the Secrets of Their Structure–Activity Relationship” (Influenza and Other Respiratory Viruses, 2025).
Several values for one entry are separate records, joined by “and”; a condition that tells them apart may be missing. Equal values may be shown once. Read-outs that look alike come from different tables or passages of the source.

Legend:
HCoV‐229E = test: microbe, parasite or virus in culture; format: cell-based; conditions: n = 1; for inhibition at 10 µM: Human coronavirus 229E, Huh-7, read-out: Protective effects HCoV-229E %
Huh7 cells = conditions: n = 1
[1] = at 10 μM, compared with vehicle control, Huh7 cells
[2] = at 10 μM, compared with vehicle control
[3] = tested at 1 μM due to low solubility in DMSO

Molecule | Protective effects HCoV-229E % (HCoV‐229E; [1]) | Cytotoxicity to the host Huh7 cells % (Huh7 cells; [2]) | inhibition at 10 µM (HCoV‐229E; [1]) | Protective effects HCoV-229E % (HCoV‐229E; [3]) | Cytotoxicity to the host Huh7 cells % (Huh7 cells; [3])
O[C@@H]1CC=C2CCN3Cc4cc5c(cc4[C@H]1[C@@H]23)OCO5 [Compound 15, (−)‐caranine] | — (Not active (insignificant protective effects below 20%)) | — (Non-toxic (insignificant cytotoxic effects, below 20%)) | – | – | –
CN1CCc2cc3c(cc2[C@]12Cc1ccc4c(c1C2=O)OCO4)OCO3 [Compound 41, (+)‐fumariline] | — (Not active (insignificant protective effects below 20%)) | — (Non-toxic (insignificant cytotoxic effects, below 20%)) | – | – | –
COc1ccc(CC2c3cc4c(cc3CCN2C)OCO4)c(C=O)c1OC (stereo not drawn) [Compound 30, (+)‐canadaline] | — (Not active (insignificant protective effects below 20%)) | — (Non-toxic (insignificant cytotoxic effects, below 20%)) | – | – | –
COc1cc2c(cc1OC)[C@H]1[C@@H](C)c3ccc(OC)c(OC)c3CN1CC2 [Compound 31, (+)‐corydaline] | — (Not active (insignificant protective effects below 20%)) | — (Non-toxic (insignificant cytotoxic effects, below 20%)) | – | – | –
CN1CCC2=CC[C@H]3OC(=O)c4cc5c(cc4[C@H]3[C@@H]21)OCO5 [Compound 11, masonine] | — (Not active (insignificant protective effects below 20%)) | — (Non-toxic (insignificant cytotoxic effects, below 20%)) | – | – | –
COc1cc2c(cc1O)[C@]1(Cc3ccc4c(c3C1=O)OCO4)N(C)CC2 [Compound 42, (+)‐parfumine] | — (Not active (insignificant protective effects below 20%)) | — (Non-toxic (insignificant cytotoxic effects, below 20%)) | – | – | –
CN1CCC2=C[C@H](O)[C@H]3OC(=O)c4cc5c(cc4[C@H]3[C@@H]21)OCO5 [Compound 12, hippeastrine] | — (Not active (insignificant protective effects below 20%)) | 25% | – | – | –
CN1CCc2cc3c(cc2[C@H]1[C@@H]1OC(=O)c2c1ccc1c2OCO1)OCO3 [Compound 46, (+)‐bicuculline] | — (Not active (insignificant protective effects below 20%)) | — (Non-toxic (insignificant cytotoxic effects, below 20%)) | – | – | –
(−)‐berkristine [Compound 21] | 65% | — (Non-toxic (insignificant cytotoxic effects, below 20%)) | – | – | –
O[C@H]1C=C[C@@]23CCN(Cc4cc5c(cc42)OCO5)[C@@H]3C1 [Compound 14, (−)‐crinine] | — (Not active (insignificant protective effects below 20%)) | — (Non-toxic (insignificant cytotoxic effects, below 20%)) | – | – | –
(±)‐O‐methylfumarofine [Compound 44] | — (Not active (insignificant protective effects below 20%)) | — (Non-toxic (insignificant cytotoxic effects, below 20%)) | – | – | –
CO[C@@H]1C=C[C@@]23c4cc5c(cc4CO[C@]2(O)CN(C)[C@H]3C1)OCO5 [Compound 5, (+)‐tazettine] | — (Not active (insignificant protective effects below 20%)) | — (Non-toxic (insignificant cytotoxic effects, below 20%)) | – | – | –
COc1cc2c(cc1OC)-c1c(OC)c(OC)cc3ccnc(c13)C2=O [Compound 61, oxoglaucine] | – | — (Non-toxic (insignificant cytotoxic effects, below 20%)) | < 20% | – | –
seco‐isopowellaminone [Compound 6] | — (Not active (insignificant protective effects below 20%)) | 20% | – | – | –
(−)‐corypalmine [Compound 25] | — (Not active (insignificant protective effects below 20%)) | — (Non-toxic (insignificant cytotoxic effects, below 20%)) | – | – | –
COc1cc2c(cc1OC)[C@H]1[C@H]3C(=CC[C@H]1OC2=O)CCN3C [Compound 10, homolycorine] | – | — (Non-toxic (insignificant cytotoxic effects, below 20%)) | 40% | – | –
COc1cc2c(cc1OC)-c1c(OC)c(OC)cc3c1[C@H](C2)N(C)CC3 [Compound 47, glaucine] | – | — (Non-toxic (insignificant cytotoxic effects, below 20%)) | < 20% | – | –
COc1cc2c(cc1OC)C(=O)Cc1ccc3c(c1CN(C)CC2)OCO3 [Compound 45, cryptopine] | — (Not active (insignificant protective effects below 20%)) | — (Non-toxic (insignificant cytotoxic effects, below 20%)) | – | – | –
(−)‐undulatine [Compound 13] | — (Not active (insignificant protective effects below 20%)) | — (Non-toxic (insignificant cytotoxic effects, below 20%)) | – | – | –
COc1cc2c(cc1O)C1(Cc3ccc4c(c3C1O)OCO4)N(C)CC2 (stereo not drawn) [Compound 40, (−)‐fumaritine] | – | – | – | — (Not active (insignificant protective effects below 20%)) | — (Non-toxic (insignificant cytotoxic effects, below 20%))

Molecule | Protective effects HCoV-229E % (HCoV‐229E; [1]) | Cytotoxicity to the host Huh7 cells % (Huh7 cells; [2]) | inhibition at 10 µM (HCoV‐229E; [1]) | Protective effects HCoV-229E % (HCoV‐229E; [3]) | Cytotoxicity to the host Huh7 cells % (Huh7 cells; [3])
COc1cc2c(cc1OC)C1Cc3ccc(OC)c(O)c3C(C2)N1C (stereo not drawn) [Compound 24, (−)‐platycerine] | — (Not active (insignificant protective effects below 20%)) | — (Non-toxic (insignificant cytotoxic effects, below 20%)) | – | – | –
COc1ccc2c(c1OC)[C@@H]1Cc3cc4c(cc3[C@H](C2)N1C)OCO4 [Compound 36, O‐methylneocarychine] | — (Not active (insignificant protective effects below 20%)) | — (Non-toxic (insignificant cytotoxic effects, below 20%)) | – | – | –
O[C@H]1C=C[C@@]23c4cc5c(cc4CN(C[C@@H]2O)[C@H]3C1)OCO5 [Compound 2, (+)‐hamayne] | — (Not active (insignificant protective effects below 20%)) | — (Non-toxic (insignificant cytotoxic effects, below 20%)) | – | – | –
O[C@H]1[C@H]2c3cc4c(cc3CN3CCC(=C[C@@H]1O)[C@H]23)OCO4 [Compound 9, lycorine] | – | — (Non-toxic (insignificant cytotoxic effects, below 20%)) | < 20% | – | –
COC1=CC=C2[C@H]3Cc4ccc(OC)c5c4[C@@]2(CCN3C)[C@H]1O5 [Compound 54, thebaine] | – | — (Non-toxic (insignificant cytotoxic effects, below 20%)) | < 20% | – | –
COC1=C[C@]23CCN(C)[C@H](Cc4ccc(OC)c(O)c42)C3=CC1=O [Compound 59, (−)‐salutaridine] | — (Not active (insignificant protective effects below 20%)) | — (Non-toxic (insignificant cytotoxic effects, below 20%)) | – | – | –
COc1cc2c(cc1OC)[C@@H](O)O[C@@H]1CC=C3CCN(C)[C@H]3[C@H]21 [Compound 7, lycorenine] | — (Not active (insignificant protective effects below 20%)) | 20% | – | – | –
c1cc2c(c3c1C[C@H]1c4cc5c(cc4CCN1C3)OCO5)OCO2 [Compound 49, (−)‐stylopine] | — (Not active (insignificant protective effects below 20%)) | — (Non-toxic (insignificant cytotoxic effects, below 20%)) | – | – | –
COc1cc2c(cc1OC)C1(Cc3ccc4c(c3C1OC(C)=O)OCO4)N(C)CC2 (stereo not drawn) [Compound 39, (−)‐O‐methylfumarophycine] | — (Not active (insignificant protective effects below 20%)) | — (Non-toxic (insignificant cytotoxic effects, below 20%)) | – | – | –
CO[C@@H]1C=C[C@@]23c4cc5c(cc4CN(C[C@@H]2O)[C@H]3C1)OCO5 [Compound 3, (+)‐haemanthamine] | – | 50% | 50% | – | –
(+)‐thalictricavine [Compound 27] | — (Not active (insignificant protective effects below 20%)) | – | – | – | –
COc1cc2c(cc1Oc1c3c(cc(OC)c1OC)CCN(C)C3)C(Cc1ccc(O)cc1)N(C)CC2 (stereo not drawn) [Compound 20, (−)‐muraricine] | 50% | — (Non-toxic (insignificant cytotoxic effects, below 20%)) | – | – | –
O=C1c2ccccc2-c2c3c(cc4ccnc1c24)OCO3 [Compound 62, liriodenine] | – | — (Non-toxic (insignificant cytotoxic effects, below 20%)) | < 20% | – | –
CN1Cc2c(ccc3c2OCO3)[C@@H]2[C@H]1c1cc3c(cc1C[C@@H]2O)OCO3 [Compound 50, chelidonine] | – | 35% and 35%–40% | < 20% | – | –
CN1CCC2=CCC3OC(O)c4cc5c(cc4C3C21)OCO5 (centres unmarked) [Compound 8, oduline] | — (Not active (insignificant protective effects below 20%)) | 20% | – | – | –
COc1cc2c(cc1O)[C@@H]1Cc3ccc(OC)c(OC)c3CN1CC2 [Compound 32, tetrahydrocolumbamine] | — (Not active (insignificant protective effects below 20%)) | — (Non-toxic (insignificant cytotoxic effects, below 20%)) | – | – | –
COc1cc2c(cc1O)[C@@H]1Cc3cc4c(cc3[C@H](C2)N1C)OCO4 [Compound 34, (−)‐caryachine] | — (Not active (insignificant protective effects below 20%)) | — (Non-toxic (insignificant cytotoxic effects, below 20%)) | – | – | –
(−)‐O‐methylcaryachine [Compound 35] | — (Not active (insignificant protective effects below 20%)) | — (Non-toxic (insignificant cytotoxic effects, below 20%)) | – | – | –
COC1=C[C@@]23CCN(C)[C@@H](Cc4cc(O)c(OC)cc42)C3=CC1=O [Compound 60, (−)‐pallidine] | — (Not active (insignificant protective effects below 20%)) | — (Non-toxic (insignificant cytotoxic effects, below 20%)) | – | – | –
